# Laboratory results as given in article PMC6158189, “A pharmacological probe identifies cystathionine β-synthase as a new negative regulator for ferroptosis” (Cell Death & Disease, 2018).
# What was measured:
# [1] = test system: HEK293T cells; assay: cell viability (CellTiter 96 Aqueous One); format: cell-based; conditions: 24 h
# Method: Fig. 4 CH004 arrests the cell cycle at the S phase. a CH004 reduces the cell viability of HEK293T and HepG2 cells. HEK293T or HepG2 cells were treated with indicated concentrations of CH004 for 24 h before the cell number was analyzed using the CellTiter96® Aqueous One Solution Cell Proliferation Assay (Promega, Materials and Methods). The means at each concentration of one representative experiment are shown as percentages of DMSO (control, 100%). Means ± SDs (n = 3). b Overexpression of hCBS or knock-down of hCBS counteracts the growth inhibition exerted by CH004 in HEK293T cells. Indicated HEK293T stable cell lines were treated with the CH004 or DMSO for 24 h. Then, the cell viability was quantified with the CellTiter 96® Aqueous One Solution Cell Proliferation Assay under the standard protocol (Promega). […] The efficacy for CBS overexpression and knock-down in HEK293T cells was determined by Western blotting using an anti-CBS antibody (3E1, 1:2000; Abnova). c CH004 induces cell death in HEK293T and HepG2 cells. […] HEK293T cells were incubated with indicated compounds for 12 h, and the DNA content was quantified with propidium iodide to analyze the cell cycle distribution by flow cytometry (e). The cell cycle distributions for HEK293T-shNT and HEK293T-shCBS cells were accordingly analyzed and are shown in f. […]
# [2] = test system: HepG2 cells; assay: lipid ROS (BODIPY 581/591 C11, flow cytometry); format: cell-based, human; conditions: 24 h, HepG2
# Method: To detect lipid peroxidation upon treatment with CH004, HepG2 cells or mouse embryonic fibroblasts (MEF) were seeded in 12-well plates with ~ 1.8 × 10^5 cells per well for 24 h. After treatment with the inhibitor for another 24 h, cells were stained with BODIPY® 581/591 C11 (Invitrogen) for 1 h at a final concentration of 2 μM at 37 °C[57]. The cells were then resuspended in an appropriate amount of PBS after being washed once with PBS. Lipid peroxidation, i.e., lipid ROS, was analyzed by detection of the fluorescence using an LSR Fortessa flow cytometer. The data were recorded at 530/30 nm (green fluorescent) and 670/30 nm (red fluorescent) wavelengths after excitation at 488 nm. A minimum of 20000 events was used for the analysis. All the experiments were independently repeated twice in triplicate.
# Figure S15. The mode of actions for CH004 in cells. […] Indicated HEK293T stable cell lines were treated with CH004 at a concentration of 10 µM for 24 h, and the cell viability was then measured using the CellTiter96® Aqueous One Solution Cell Proliferation Assay (Promega). Means ± SDs (n=3). (B-C) CH004 or erastin triggers ferroptosis in mouse embryonic fibroblasts (MEF). WT MEF cells were treated with CH004 or erastin at indicated concentrations in the presence or the absence of 500 µM DFO for 24 h before measuring the lipid ROS with 2 μM BODIPY® 581/591 C11 (Materials and methods). […] Erastin at micromolar concentrations were incubated with HepG2 cells for 24 h before measuring the lipid ROS (see above and Materials and methods). […] Means ± SDs (n=3). […] CH004 or erastin at a concentration of 20 µM was incubated with HepG2 cells for 48 h or 72 h in the presence or the absence of 100 µM DFO. The cell viability was accordingly quantified using the CellTiter96® Aqueous One Solution Cell Proliferation Assay (Promega) and the results were shown as percentages of DMSO (control, 100%). Means ± SDs (n=3). All the experiments were independently repeated at least twice and one representative result is present. Table S1 The inhibitory effects of CH004 on purified hCBS, hCSE and hDDC.
# [3] = test system: HepG2 cells; assay: cell viability (CellTiter 96 Aqueous One); format: cell-based, human; conditions: 24 h
# Method: Fig. 4 CH004 arrests the cell cycle at the S phase. a CH004 reduces the cell viability of HEK293T and HepG2 cells. HEK293T or HepG2 cells were treated with indicated concentrations of CH004 for 24 h before the cell number was analyzed using the CellTiter96® Aqueous One Solution Cell Proliferation Assay (Promega, Materials and Methods). The means at each concentration of one representative experiment are shown as percentages of DMSO (control, 100%). Means ± SDs (n = 3). b Overexpression of hCBS or knock-down of hCBS counteracts the growth inhibition exerted by CH004 in HEK293T cells. Indicated HEK293T stable cell lines were treated with the CH004 or DMSO for 24 h. Then, the cell viability was quantified with the CellTiter 96® Aqueous One Solution Cell Proliferation Assay under the standard protocol (Promega). The means at each concentration are shown as percentages of their respective DMSO controls (100%). Means ± SDs (n = 3). The efficacy for CBS overexpression and knock-down in HEK293T cells was determined by Western blotting using an anti-CBS antibody (3E1, 1:2000; Abnova). c CH004 induces cell death in HEK293T and HepG2 cells. […] The means of percentages of dead cells (DMSO, 100%) from three independent samples are shown in d. Means ± SDs (n = 3). e, f Pharmacological inhibition or genetic knock-down of hCBS in HEK293T cells arrests the cell cycle at S phase. HEK293T cells were incubated with indicated compounds for 12 h, and the DNA content was quantified with propidium iodide to analyze the cell cycle distribution by flow cytometry (e). The cell cycle distributions for HEK293T-shNT and HEK293T-shCBS cells were accordingly analyzed and are shown in f. One representative diagram is shown for each condition. The mean percentages of various cell phases from three independent samples are shown in the respective right panels. Means ± SDs (n = 3). […]
# Figure S15. […] Indicated HEK293T stable cell lines were treated with CH004 at a concentration of 10 µM for 24 h, and the cell viability was then measured using the CellTiter96® Aqueous One Solution Cell Proliferation Assay (Promega). […]
smiles,measurement,setting,value
"Cn1nc(Cc2ccccc2)nc2c(=O)n(C)c(=O)nc1-2 [CH004, 3-benzyl-1,6-dimethylpyrimido[5,4-e][1,2,4]triazine-5,7(1H,6H)-dione]",IC50,[1],~17 µM
same,IC50,"[1]; Homo sapiens, HEK-293T",16.6 ± 5.3 µM
same,increase of lipid ROS,[2]; 10 μM,~ 250%
same,"lipid peroxidation (lipid ROS), dose dependence",[2],dose-dependently increased
same,IC50,[3],~11 µM
same,IC50,"[3]; Homo sapiens, HepG2, 24 h",11.3 ± 1.3 µM
